Data set [1] deals with SKNMC cells (human neuroblastoma). The experiment in a line: Apoptosis induction in SKNMC cells with ROS pathway inhibitors (FIG. 5). Type of data set: cell-based. Here is the method:
FIG. 5 discloses experimental data obtained with 25 000 SKNMC cells (human neuroblastoma) in 48 well tissue culture clusters (without addition of TGF-beta). […] Control assays contained the respective compound in the absence of any inhibitors. Parallel assays contained either 200 μM of the NADPH (nicotinamide adenine dinucleotide phosphate) oxidase inhibitor AEBSF, 10 μM of the nNOS-specific NO synthetase inhibitor 3-Br-7-Ni (3-bromo-7-nitroindazole), 2 mM of the singlet oxygen scavenger histidine or 50 mM of the HOCl scavenger taurine. The percentage of apoptotic cells was determined at the indicated time points.
For all inducers, apoptosis induction was dependent on superoxide anion generation and NO synthesis, as it was blocked by AEBSF and 3-Br-7-Ni respectively. In contrast to the NO/peroxynitrite pathway, the HOCl pathway played no role for apoptosis induction in this particular line. Apoptosis induction by all azoles tested depended on singlet oxygen action, as it was blocked by histidine.

Data set [2] concerns L929 cells. The data set can be described thus: Apoptosis induction by azoles in L929 cells with TGF-beta. The data set is classed as cell-based, murine. To be noted: 2 mM histidine; 3-AT at 25 mM. Here is the method:
FIG. 3 discloses experimental data obtained with 25000 L929 cells in 48 well tissue culture clusters in the presence of 20 ng/ml TGF-beta. Itraconazole was added at the indicated concentrations, in the presence or absence of 2 mM histidine (singlet oxygen scavenger). The percentage of apoptotic cells was determined after 37 hrs.
The dashed lines indicate the percentage of apoptotic cells obtained when the tumor cell catalase was blocked by 25 mM […] (3-AT).
FIG. 4 discloses experimental data obtained with 25000 L929 cells in 48 well tissue culture clusters in the presence of 20 ng/ml TGF-beta. “No addition” represents the control without addition of compound. […] The percentage of apoptotic cells was determined after 63 hrs.
The first step comprises contacting tumor cells in media comprising TGF-beta with the test compounds to be analyzed for their properties of apoptosis induction. After a specific incubation time, the extent of apoptosis induction is determined, e.g. after two days. Methods for determining the apoptosis in cells in a quantitative manner are well known in the art and are for example described by Jürgensmeier et al. (Cancer Research 1994; 54:393-398). […] These features of apoptotic cells can be determined through phase contrast microscopy or after chromatin staining with fluorescent dyes, followed by fluorescence microscopy. […]

In data set [3] the test system is SISO cells (human cervix carcinoma). The experiment in a line: Apoptosis induction by taxol in SISO cells, 48 well (FIGS. 6-8, Example 4). Type of data set: cell-based.
For data set [4] the test system is unchanged. The data set is described as above. Type of data set: cell-based. As for the experimental part: FIG. 6 discloses experimental data obtained with 25000 SISO cells (human cervix carcinoma) cultured in 48 well tissue culture clusters in the presence of the indicated concentrations of the established chemotherapeutic compound taxol. The assays contained 2 mM Histidine or not.
FIG. 7 discloses experimental data obtained with 25000 SISO cells (human cervix carcinoma) cultured in 48 well tissue culture clusters either in the absence of any inducer (“no addition”) or in the presence of 10 μg/ml taxol (“TAX”) without further additions or with the addition of 100 μM of the NADPH oxidase inhibitor AEBSF, 100 U/ml of the superoxide anion scavenger SOD (Manganese-containing SOD from E. coli), 100 U/ml catalase, 150 μM of the peroxidase inhibitor ABH (aminobenzoylhydrazide), 50 mM of the HOCl scavenger taurine, 1 mM of the hydroxyl radical scavenger mannitol, 2.4 mM of the NO synthase inhibitor L-NAME, and 25 μM of the inhibitors for caspase 3, −9 and 8.
FIG. 8 discloses experimental data obtained with 25 000 SISO cells in 48 well tissue culture clusters in the presence of 20 ng/ml TGF and the indicated concentrations of taxol. Where indicated, taxol containing assays received 10 mM arginine (10 ARG), 200 μM Nor-NOHA or a combination of both.
Human SISO cells are used in a 48-well plate (Costar) in 200 μl media with a cell concentration of 25,000. The media comprises 20 ng/ml TGF-beta and furthermore Taxol subjected for testing in a concentration ranging from 1.25-20 ng/ml. For comparison, control experiments are performed without Taxol which is tested for apoptosis induction.
Step 2 is carried out with the same conditions as specified for step 1, whereas all cells are contacted with taxol. In addition, histidine (2 mM) is added to the cells, whereas also experiments without histidine are performed as control experiments.
In a further experiment using the conditions of step 1, human tumor cells (SISO) are contacted with taxol (10 μg/ml) and 100 μM of the NADPH oxidase inhibitor AEBSF, 100 U/ml of the superoxide anion scavenger SOD (Manganese-containing SOD from E. coli), 100 U/ml catalase, 150 μM of the peroxidase inhibitor ABH (aminobenzoylhydrazide), 50 mM of the HOCl scavenger taurine, 1 mM of the hydroxyl radical scavenger mannitol or 2.4 mM of the NO synthase inhibitor L-NAME.
The source holds these as a separate data set.

For data set [5], the system named is SHEP. The data set can be described thus: Inhibitor effect on inducer-mediated apoptosis, SHEP cells (Example 6). Type of data set: cell-based, human. Here is the method:
(§1) The effect of a singlet oxygen scavenger, a NO synthase inhibitor and a HOCl scavenger on either the destruction of the catalase or the HOCl pathway was determined by the following experiment. 12500 SISO cells in 100 μl media in 96 tissue wells were treated with taxol (20 μg/ml) in the presence of TGF-β (20 ng/ml). In addition, the singlet oxygen scavenger, the NO synthase inhibitor or the HOCl scavenger was added at different points of time in the experiments.
Further experiments have been carried out using different types of cells and different apoptosis inhibitors. The experimental setup was analogue to the examples 5a-5c and the late addition of the inhibitor (histidine, L-NAME, 3-Br-7-Nitroindazole or taurine) was performed 1 hour after beginning of the experiment. The concentrations of taxol, histidine, L-NAME and taurine were the same as in the experiments 5a-5c. 3-Br-7-Nitroindazole was added at a concentration of 10 μm. The apoptosis inducing compounds were added at increasing concentrations (0-5 mM arginine, 0-20 μg/ml taxol, 0-20 μg/ml artemisine, 0-20 μg/ml xanthohumol, 0-20 μg/ml itraconazole, 0-10 μg/ml miconazole, 0-20 μg/ml antibody against Apo/FAS receptor). In each of the experiments, the effect of the inhibitors on the singlet oxygen mediated catalase destruction and/or the subsequent ROS signaling could be observed. […]

In data set [6] the test system is SISO cells. The data set can be described thus: Timed inhibitor addition on inducer-mediated apoptosis in SISO cells, 96 well (Examples 5, 6). The data set is classed as cell-based, human. Here is the method:
FIG. 9 discloses experimental data obtained with 12500 SISO cells in 96 well tissue culture clusters in the presence of 20 ng/ml TGF and the indicated concentrations of taxol. Furthermore, histidine was added at different time points in the experiment.
FIG. 11 refers to a similar experiment as described with respect to FIG. 8 or 9, whereas histidine/L-NAME was substituted by taurine (50 mM, scavenger of HOCl).
as §1
The concentrations of taxol, histidine, L-NAME and taurine were the same as in the experiments 5a-5c. 3-Br-7-Nitroindazole was added at a concentration of 10 μm. The apoptosis inducing compounds were added at increasing concentrations (0-5 mM arginine, 0-20 μg/ml taxol, 0-20 μg/ml artemisine, 0-20 μg/ml xanthohumol, 0-20 μg/ml itraconazole, 0-10 μg/ml miconazole, 0-20 μg/ml antibody against Apo/FAS receptor).

Data set [7] deals with normal diploid fibroblasts. The experiment in a line: Toxicity test on normal diploid fibroblasts (step 3). To be noted: conditions of step 1, two days; data not shown. Type of data set: cell-based. Here is the method:
The method for identifying suitable compounds can additionally comprise a third step. The third step comprises contacting the identified compounds from step 2 with normal diploid fibroblasts in order to determine whether these compounds induce apoptosis or other toxic reactions and are therefore not suitable for a medical use.
The experimental conditions are the same as for step 1, whereas the cells used for step 3 are normal diploid fibroblasts. Control experiments are carried out without the test compound, and the cells are incubated for two days.

Data set [8] relates to Gumbus. The experiment in a line: Inhibitor effect on inducer-mediated apoptosis, Gumbus cells (Example 6). Type of data set: cell-based. Here is the method: as §1
Further experiments have been carried out using different types of cells and different apoptosis inhibitors. The experimental setup was analogue to the examples 5a-5c and the late addition of the inhibitor (histidine, L-NAME, 3-Br-7-Nitroindazole or taurine) was performed 1 hour after beginning of the experiment. The concentrations of taxol, histidine, L-NAME and taurine were the same as in the experiments 5a-5c. 3-Br-7-Nitroindazole was added at a concentration of 10 μm. The apoptosis inducing compounds were added at increasing concentrations (0-5 mM arginine, 0-20 μg/ml taxol, 0-20 μg/ml artemisine, 0-20 μg/ml xanthohumol, 0-20 μg/ml itraconazole, 0-10 μg/ml miconazole, 0-20 μg/ml antibody against Apo/FAS receptor). In each of the experiments, the effect of the inhibitors on the singlet oxygen mediated catalase destruction and/or the subsequent ROS signaling could be observed. […] Addition of histidine at the beginning of the experiment caused inhibition in all experiments and for all cell lines shown. […] The experiments using neuroblastoma cells only display apoptosis mediated by the NO pathway as these cells only release small amounts of peroxidase. Therefore, addition of the nNOS-specific inhibitor 3-Br-7NI caused inhibition of apoptosis, irrespective of the time of addition. […] Addition of taurine in the presence of higher concentrations of inducers inhibited apoptosis irrespective of the time of addition (zero versus one hour), as HOCl is only involved in intercellular signaling, but not in catalase destruction.

The mark [9] stands for this setting: SISO, inducer at increasing concentrations.

As to `Nc1nc[nH]n1` [3-AT, 3-aminotriazole], in data set [1] (2 mM histidine), the “effect of histidine on induced apoptosis (singlet oxygen dependence)” value was “singlet oxygen is not required”. Moreover, the “apoptosis induction (percentage of apoptotic cells)” value in data set [1] (12.5 or 25 μg/ml azole, 75 mM 3-AT, without TGF-beta) is on record as “induced apoptosis in the tumor cells to a significant extent”. Moreover, the “effect of histidine on induced apoptosis” value in data set [2] is “not blocked by histidine”.
For `CC(=O)O[C@H]1C(=O)[C@@]2(C)[C@H]([C@H](OC(=O)c3ccccc3)[C@]3(O)C[C@H](OC(=O)[C@H](O)[C@@H](NC(=O)c4ccccc4)c4ccccc4)C(C)=C1C3(C)C)[C@]1(OC(C)=O)CO[C@@H]1C[C@@H]2O` [Taxol], the “signaling pathway used at low taxol concentration” value in data set [3] (2 μg/ml taxol, data not shown) is given as “the NO pathway became more prominent”. The “apoptosis induction in SISO cells with siRNA knockdown of superoxide anion generation” value in data set [3] (siRNA-based genetic knockdown) was “did not lead to taxol-mediated apoptosis induction”. The “effect of histidine on taxol-induced apoptosis” value in data set [4] (2 mM histidine) is reported as “inhibited by histidine at all concentrations”. For the same compound, the apoptosis induction result in data set [4] (Taxol 1.25-20 ng/ml, 20 ng/ml TGF-beta) was “apoptosis already occurs after 12.5 hours at all concentrations”. In data set [4] (taxol 10 μg/ml, 25 μM inhibitors for caspase 3, -9 and 8), the “caspase dependence of apoptosis induction” value is “mediated by caspases 9 and 3 (mitochondrial pathway) and is independent of the death receptor specific caspase 8”. The “effect of inhibitors of superoxide anion generation (AEBSF, SOD) on taxol-mediated apoptosis” value in data set [4] (taxol 10 μg/ml, 100 μM AEBSF, 100 U/ml SOD) is recorded as “inhibited”. Also, in data set [4] (taxol 10 μg/ml, 2.4 mM L-NAME), the “effect of inhibitor of the NO pathway (L-NAME) on taxol-mediated apoptosis” value is given as “not by the inhibitor of the NO pathway”. The “effect of inhibitors of the HOCl pathway (catalase, ABH, taurine, mannitol) on taxol-mediated apoptosis” value in data set [4] (taxol 10 μg/ml, 100 U/ml catalase, 150 μM ABH, 50 mM taurine, 1 mM mannitol) is given as “inhibited”. In addition, the “apoptosis inhibitory effect of Histidine” value in data set [5] was “+”. The “apoptosis inhibitory effect of 3-Br-7-NI” value in data set [5] (3-Br-7-Nitroindazole 10 μm) is recorded as “+”. The “effect of histidine added at the beginning on taxol-induced apoptosis” value in data set [6] (2 mM histidine at start) is reported as “inhibits the tumor apoptosis to a great extend”. Besides, the “effect of late addition of L-NAME on taxol-induced apoptosis” value in data set [6] (2.4 mM L-NAME 5 hours after beginning) was “only shows some inhibition at low taxol concentrations”. In data set [6] (2.4 mM L-NAME at start), the “effect of early addition of L-NAME on taxol-induced apoptosis” value is on record as “inhibits tumor apoptosis”. Besides, the “effect of taurine on taxol-induced apoptosis” value in data set [6] (50 mM taurine at start or after 5 hours) is recorded as “only inhibits tumor apoptosis at high taxol concentrations”. Moreover, in data set [6] (setting [9]), the “apoptosis inhibitory effect of Histidine” value is given as “+”, the “apoptosis inhibitory effect of L-NAME” value is “+” and the “apoptosis inhibitory effect of Taurine” value was “+”. The “effect of late addition of histidine on taxol-induced apoptosis” value in data set [6] (histidine 5 hours after beginning) was “only shows a small effect of apoptosis inhibition”. In addition, the “apoptosis induction in diploid fibroblasts” value in data set [7] is recorded as “did not induce significant apoptosis”. Also, in data set [8], the “apoptosis inhibitory effect of Histidine” value is “+”, the “apoptosis inhibitory effect of L-NAME” value is given as “+” and the “apoptosis inhibitory effect of Taurine” value is reported as “+”.

The values are drawn from US8829004B2, “Method for inducing tumor apoptosis by increasing nitric oxide levels” (Universitätsklinikum Freiburg, priority 2006, dated 2014).
